Legend:
[1] = system: umbrella sedge; assay: Test B flooded paddy test; assay type: in vivo, Cyperus difformis; details: Flood, 250 g ai/ha, 13 to 15 days; scale 0 to 100, 0 no effect, 100 complete control
From the text: (§1) At time of treatment, test pots were flooded to 3 cm above the soil surface, treated by application of test compounds directly to the paddy water, and then maintained at that water depth for the duration of the test. Treated plants and controls were maintained in a greenhouse for 13 to 15 days, after which time all species were compared to controls and visually evaluated. […] A dash (-) response means no test result.

[2] = system: duck salad; assay: Test B flooded paddy test; assay type: in vivo, Heteranthera limosa; details: Flood, 250 g ai/ha, 13 to 15 days; scale 0 to 100, 0 no effect, 100 complete control
From the text: as §1

[3] = system: barnyardgrass; assay: Test B flooded paddy test; assay type: in vivo, Echinochloa crus-galli; details: Flood, 250 g ai/ha, 13 to 15 days; scale 0 to 100, 0 no effect, 100 complete control
From the text: as §1

[4] = system: downy bromegrass; assay: Test D preemergence test; assay type: in vivo, Bromus tectorum; details: scale 0 to 100
From the text: (§2) Seeds of plant species selected from annual bluegrass (Poa annua), blackgrass (Alopecurus myosuroides), downy bromegrass (Bromus tectorum), field violet (Viola arvensis), green foxtail (Setaria viridis), Italian ryegrass (Lolium multiflorum), littleseed canarygrass (Phalaris minor), spring wheat (Triticum aestivum), wild oat (Avena fatua), […]), winter barley (Hordeum vulgare), and winter wheat (Triticum aestivum) were planted and treated preemergence with test chemicals formulated in a non-phytotoxic solvent mixture which included a surfactant. […] A dash (-) response means no test result.

[5] = system: fall panicum; assay: Test G preemergence test; assay type: in vivo, Panicum dichotomiflorum; details: scale 0 to 100
[6] = system: field violet; assay: Test D preemergence test; assay type: in vivo, Viola arvensis; details: scale 0 to 100
From the text: as §2

[7] = system: large crabgrass; assay: Test G preemergence test; assay type: in vivo, Digitaria sanguinalis; details: scale 0 to 100
[8] = system: Italian ryegrass; assay: Test D preemergence test; assay type: in vivo, Lolium multiflorum; details: scale 0 to 100
From the text: as §2

[9] = system: soybean; assay: Test G preemergence test; assay type: in vivo, Glycine max; details: scale 0 to 100
[10] = system: woolly cupgrass; assay: Test G preemergence test; assay type: in vivo, Eriochloa villosa; details: scale 0 to 100
[11] = system: broadleaf signalgrass; assay: Test G preemergence test; assay type: in vivo, Brachiaria platyphylla; details: scale 0 to 100
[12] = system: giant foxtail; assay: Test G preemergence test; assay type: in vivo, Setaria faberii; details: scale 0 to 100
[13] = system: corn; assay: Test G preemergence test; assay type: in vivo, Zea mays; details: scale 0 to 100
[14] = system: sorghum; assay: Test G preemergence test; assay type: in vivo, Sorghum vulgare; details: scale 0 to 100
[15] = system: eastern black nightshade; assay: Test G preemergence test; assay type: in vivo, Solanum ptycanthum; details: scale 0 to 100
[16] = system: goosegrass; assay: Test G preemergence test; assay type: in vivo, Eleusine indica; details: scale 0 to 100
[17] = system: green foxtail; assay: Test D preemergence test; assay type: in vivo, Setaria viridis; details: scale 0 to 100
From the text: as §2

[18] = system: spring wheat; assay: Test D preemergence test; assay type: in vivo, Triticum aestivum; details: scale 0 to 100
From the text: as §2

[19] = system: winter wheat; assay: Test D preemergence test; assay type: in vivo, Triticum aestivum; details: scale 0 to 100
From the text: as §2

[20] = system: tall waterhemp; assay: Test G preemergence test; assay type: in vivo, Amaranthus tuberculatos; details: scale 0 to 100
[21] = system: lambsquarters; assay: Test G preemergence test; assay type: in vivo, Chenopodium album; details: scale 0 to 100
[22] = system: windgrass; assay: Test D preemergence test; assay type: in vivo, Apera spica-venti; details: scale 0 to 100
From the text: as §2

[23] = system: barnyardgrass; assay: Test G preemergence test; assay type: in vivo, Echinochloa crus-galli; details: scale 0 to 100
[24] = system: wild oat; assay: Test D preemergence test; assay type: in vivo, Avena fatua; details: scale 0 to 100
From the text: as §2

[25] = system: yellow foxtail; assay: Test G preemergence test; assay type: in vivo, Pennisetum glaucum; details: scale 0 to 100

SMILES: Cn1nc(C(F)(F)F)c(C[S+]([O-])c2ccc(Cl)c[n+]2[O-])c1OC(F)F (stereo not shown) [Compound 6]
- Plant response rating, Umbrella Sedge [1]: 100
- Plant response rating, Ducksalad [2]: 100
- Plant response rating, Barnyardgrass [3]: 80

SMILES: CC(c1c(C(F)(F)F)nn(C)c1OC(F)F)S(=O)(=O)c1cccc[n+]1[O-] (stereo not shown) [Compound 5]
- Plant response rating, Umbrella Sedge [1]: 100
- Plant response rating, Ducksalad [2]: 90
- Plant response rating, Barnyardgrass [3]: 80

SMILES: Cc1cc[n+]([O-])c(S(=O)(=O)C(Cl)c2c(C(F)(F)F)nn(C)c2Cl)c1 (racemic) [Compound 22]
- Plant response rating, Bromegrass, Downy ([4]; 31 g ai/ha): 0
- Plant response rating, Bromegrass, Downy ([4]; 62 g ai/ha): 20
- Plant response rating, Bromegrass, Downy ([4]; 125 g ai/ha): 20
- Plant response rating, Bromegrass, Downy ([4]; 250 g ai/ha): 35
- Plant response rating, Fall Panicum ([5]; 31 g ai/ha): 85
- Plant response rating, Fall Panicum ([5]; 62 g ai/ha): 85
- Plant response rating, Fall Panicum ([5]; 125 g ai/ha): 90
- Plant response rating, Fall Panicum ([5]; 250 g ai/ha): 100
- Plant response rating, Field Violet ([6]; 31 g ai/ha): 0
- Plant response rating, Field Violet ([6]; 62 g ai/ha): 30
- Plant response rating, Field Violet ([6]; 125 g ai/ha): 30
- Plant response rating, Field Violet ([6]; 250 g ai/ha): 45
- Plant response rating, Crabgrass, Large ([7]; 31 g ai/ha): 60
- Plant response rating, Crabgrass, Large ([7]; 62 g ai/ha): 60
- Plant response rating, Crabgrass, Large ([7]; 125 g ai/ha): 95
- Plant response rating, Crabgrass, Large ([7]; 250 g ai/ha): 100
- Plant response rating, Ryegrass, Italian ([8]; 31 g ai/ha): 0
- Plant response rating, Ryegrass, Italian ([8]; 62 g ai/ha): 30
- Plant response rating, Ryegrass, Italian ([8]; 125 g ai/ha): 35
- Plant response rating, Ryegrass, Italian ([8]; 250 g ai/ha): 55
- Plant response rating, Soybean ([9]; 31 g ai/ha): 0
- Plant response rating, Soybean ([9]; 62 g ai/ha): 0
- Plant response rating, Soybean ([9]; 125 g ai/ha): 0
- Plant response rating, Soybean ([9]; 250 g ai/ha): 0
- Plant response rating, Cupgrass, Woolly ([10]; 31 g ai/ha): 0
- Plant response rating, Cupgrass, Woolly ([10]; 62 g ai/ha): 60
- Plant response rating, Cupgrass, Woolly ([10]; 125 g ai/ha): 70
- Plant response rating, Cupgrass, Woolly ([10]; 250 g ai/ha): 80
- Plant response rating, Signalgrass ([11]; 31 g ai/ha): 0
- Plant response rating, Signalgrass ([11]; 62 g ai/ha): 40
- Plant response rating, Signalgrass ([11]; 125 g ai/ha): 65
- Plant response rating, Signalgrass ([11]; 250 g ai/ha): 75
- Plant response rating, Foxtail, Giant ([12]; 31 g ai/ha): 65
- Plant response rating, Foxtail, Giant ([12]; 62 g ai/ha): 70
- Plant response rating, Foxtail, Giant ([12]; 125 g ai/ha): 75
- Plant response rating, Foxtail, Giant ([12]; 250 g ai/ha): 75
- Plant response rating, Corn ([13]; 31 g ai/ha): 0
- Plant response rating, Corn ([13]; 62 g ai/ha): 0
- Plant response rating, Corn ([13]; 125 g ai/ha): 0
- Plant response rating, Corn ([13]; 250 g ai/ha): 0
- Plant response rating, Sorghum ([14]; 31 g ai/ha): 0
- Plant response rating, Sorghum ([14]; 62 g ai/ha): 0
- Plant response rating, Sorghum ([14]; 125 g ai/ha): 0
- Plant response rating, Sorghum ([14]; 250 g ai/ha): 95
- Plant response rating, Nightshade ([15]; 31 g ai/ha): 0
- Plant response rating, Nightshade ([15]; 62 g ai/ha): 0
- Plant response rating, Nightshade ([15]; 125 g ai/ha): 0
- Plant response rating, Nightshade ([15]; 250 g ai/ha): 45
- Plant response rating, Goosegrass ([16]; 31 g ai/ha): 100
- Plant response rating, Goosegrass ([16]; 62 g ai/ha): 100
- Plant response rating, Goosegrass ([16]; 125 g ai/ha): 100
- Plant response rating, Goosegrass ([16]; 250 g ai/ha): 100
- Plant response rating, Foxtail, Green ([17]; 31 g ai/ha): 15
- Plant response rating, Foxtail, Green ([17]; 62 g ai/ha): 40
- Plant response rating, Foxtail, Green ([17]; 125 g ai/ha): 95
- Plant response rating, Foxtail, Green ([17]; 250 g ai/ha): 100
- Plant response rating, Wheat, Spring ([18]; 31 g ai/ha): 0
- Plant response rating, Wheat, Spring ([18]; 62 g ai/ha): 0
- Plant response rating, Wheat, Spring ([18]; 125 g ai/ha): 0
- Plant response rating, Wheat, Spring ([18]; 250 g ai/ha): 15
- Plant response rating, Wheat, Winter ([19]; 31 g ai/ha): 0
- Plant response rating, Wheat, Winter ([19]; 62 g ai/ha): 0
- Plant response rating, Wheat, Winter ([19]; 125 g ai/ha): 0
- Plant response rating, Wheat, Winter ([19]; 250 g ai/ha): 10
- Plant response rating, Waterhemp ([20]; 31 g ai/ha): 0
- Plant response rating, Waterhemp ([20]; 62 g ai/ha): 20
- Plant response rating, Waterhemp ([20]; 125 g ai/ha): 30
- Plant response rating, Waterhemp ([20]; 250 g ai/ha): 100
- Plant response rating, Lambsquarters ([21]; 31 g ai/ha): 0
- Plant response rating, Lambsquarters ([21]; 62 g ai/ha): 0
- Plant response rating, Lambsquarters ([21]; 125 g ai/ha): 0
- Plant response rating, Lambsquarters ([21]; 250 g ai/ha): 80
- Plant response rating, Windgrass ([22]; 31 g ai/ha): 100
- Plant response rating, Windgrass ([22]; 62 g ai/ha): 100
- Plant response rating, Windgrass ([22]; 125 g ai/ha): 100
- Plant response rating, Windgrass ([22]; 250 g ai/ha): 100
- Plant response rating, Barnyardgrass ([23]; 31 g ai/ha): 0
- Plant response rating, Barnyardgrass ([23]; 62 g ai/ha): 95
- Plant response rating, Barnyardgrass ([23]; 125 g ai/ha): 100
- Plant response rating, Barnyardgrass ([23]; 250 g ai/ha): 100
- Plant response rating, Oat, Wild ([24]; 31 g ai/ha): 0
- Plant response rating, Oat, Wild ([24]; 62 g ai/ha): 0
- Plant response rating, Oat, Wild ([24]; 125 g ai/ha): 0
- Plant response rating, Oat, Wild ([24]; 250 g ai/ha): 15
- Plant response rating, Foxtail, Yellow ([25]; 31 g ai/ha): 0
- Plant response rating, Foxtail, Yellow ([25]; 62 g ai/ha): 35
- Plant response rating, Foxtail, Yellow ([25]; 125 g ai/ha): 100
- Plant response rating, Foxtail, Yellow ([25]; 250 g ai/ha): 100
